The results in this text go back to patent US10285994B2, “Method of preventing or treating osteoporosis by neddylation inhibitor” (Chang Gung University, priority 2017, dated 2019).

SMILES strings stand for the structures.

The test system of data set [1] is ovariectomized (OVX) mice. The data set is described as follows: Ovariectomy + sRANKL osteoporosis mouse model, micro-CT of distal femur. It is filed as in vivo. The conditions noted are these: 10 mg/kg i.p. once daily for 2 weeks. The method, then: FIGS. 6A-6E are the data depicting the mouse model of ovariectomy-induced osteoporosis, in which the ovariectomized (OVX) mice are respectively treated with sRANKL (1 mg/Kg) in the absence or presence of MLN4924 (10 mg/Kg) according to example 5.1 of the present disclosure. FIG. 6A: Micro computed-tomography (micro-CT) three-dimensional images of the distal femurs of mice respectively treated with the indicated treatments, in which the left panels represent transaxial plane, and the right panels represent coronal plane. FIGS. 6B-6D: micro-CT measurement of trabecular bone parameters, including bone volume/total volume (FIG. 6B), trabecular number (FIG. 6C), and trabecular space (FIG. 6D). FIG. 6E: Serum level of C-telopeptide of type 1 collagen (CTX-1) in control, OVX, OVX+sRANKL, and OVX+sRANKL+MLN4924 groups. Values are expressed as mean±SD, N=6 per group. *p<0.05; **p<0.01.
All experimental procedures were approved by the Institutional Animal Care and Use Committee of the Chang Gung Memorial Hospital at Chiayi and complied with the Guideline for the Care and Use of Laboratory Animals available through the National Academy of Sciences (IACUC number: 2013100102 and 2015103001). All efforts were made to minimize the suffering of the animals. C57BL/6J female mice (6-8 weeks old; obtained from BioLasco in Taiwan) were operated ovariectomy surgery (OVX). 48 hours later of OVX operation, sRANKL (1 mg/kg) or saline was injected intraperitoneally once daily for two days followed by intraperitoneal injection of MLN4924 (10 mg/kg) once daily for 2 weeks. Mice were sacrificed with CO2 asphyxiation, and the tibias and femurs were isolated therefrom. The tibias were subject to histochemistry assay, and the femurs were subject to bending test and tomographic analysis by MTS (Testresources, Shakopee, Minn.) and Skyscan 1272 (Bruker, Kontich, Belgium), respectively. Serum levels of cross linked C-telopeptide of type I collagen (CTX-1) (CEA665Mu) was measured by specific ELISA kit (USCN life science incorporation, Wuhan, Hubei, China).
The mice were first treated with specified treatments before subjecting to micro-computed tomography (pCT).
The effect of MLN4924 on trabecular bone parameters, including the bone volume/total tissue volume, trabecular number, and trabecular space in bone loss mice were then investigated, and results are presented in FIGS. 6B to 6D.

A further data set relates to RAW264.7 cells. Type of data set: cell-based, mouse. The method, then:
FIGS. 2A-2D are data collected from RAW264.7 cells respectively incubated in the medium containing sRANKL (50 ng/ml) and specified concentrations of MLN4924 for 7 days according to example 1.2 of the present disclosure. FIG. 2A: the photographs of TRAP staining depicting the differentiation of osteoclasts from RAW264.7 cells. FIG. 2B: after the differentiation of osteoclasts in Corning Osteo Surface, the cells were removed, and the resorbed areas for confirming osteoclast activity were analyzed by 1% toluidine blue staining. FIG. 2C: the culture medium is subject to Biovision Cathepsin K Activity Fluorometric Assay Kit for the analysis of cathepsin K activity. FIG. 2D: the effect of effective doses of MLN4924 on the viability of RAW264.7 cells is evaluated by MTT assay. Scale bar represents 100 μm. Data are expressed as mean±SD where *p<0.05.
In addition to BMMs, the effect of MLN4924 on macrophage cell line RAW264.7 cells was also investigated. The RAW264.7 cells were cultured in the medium containing sRANKL and MLN4924 for 7 days, then subjected to osteoclast formation evaluation by TRAP staining.

A further data set relates to MC3T3-E1 cells. Nature of the data set: Osteoblast survival, crystal violet staining of MC3T3-E1 cells. Type of data set: cell-based, mouse. Conditions: MC3T3-E1, osteoblast differentiation medium, 21 days, FIG. 4A. The method, then: FIGS. 4A-4B respectively depict the osteogenesis of mouse pre-osteoblast cell line MC3T3-E1 cells incubated in the differentiation medium containing specified concentrations of MLN4924 for 21 days according to example 3 of the present disclosure. FIG. 4A: the growth of MC3T3-E1 cells during osteogenesis is analyzed by crystal violet staining. FIG. 4B: the osteogenesis of MC3T3-E1 cells on day 21 is analyzed by measuring Alizarin Red S stain. Diff: osteoblast differentiation medium. MLN: MLN4924.
The mouse pre-osteoblast cell line MC3T3-E1 cells were cultured in osteoblast differentiation medium with or without MLN4924 for 21 days.

The next data set concerns cathepsin K. The data set is described as follows: Cathepsin K activity fluorometric assay, BMMs. It is filed as cell-based, mouse. Conditions: FIG. 1C. The method, then:
FIGS. 1A-1D are data collected from primary mouse bone marrow-derived macrophages (BMMs) respectively incubated in the medium containing the soluble recombinant RANKL (sRANKL, 50 ng/ml), macrophage colony-stimulating factor (M-CSF, 40 ng/ml) and specified concentrations of MLN4924 for 7 days according to example 1.1 of the present disclosure. FIG. 1A: the photographs of TRAP staining depicting the differentiation of osteoclasts from BMMs. FIG. 1B: after the differentiation of osteoclasts in Corning Osteo Surface (a synthetic 3-dimensional structure that mimics in vivo bone for in vitro bone cell assays), the cells were removed, and the resorbed areas for confirming osteoclast activity were analyzed by 1% toluidine blue staining. FIG. 1C: the culture medium is subject to Biovision Cathepsin K Activity Fluorometric Assay Kit for the analysis of cathepsin K activity. FIG. 1D: the effect of effective doses of MLN4924 on the viability of BMMs is evaluated by MTT assay. Scale bar represents 100 μm. Data are expressed as mean±SD where *p<0.05; **p<0.01.
The pre-osteoclasts and RAW264.7 cells were seeded into Corning Osteo Surface Assay 96-wells plate (Corning, Kennebunk, Me.). Twenty-four hours later, the cells were treated with sRANKL (50 ng/ml) and specified concentrations of MLN4924 for 7 days. […]

Consider `NS(=O)(=O)OC[C@@H]1C[C@@H](n2ccc3c(N[C@H]4CCc5ccccc54)ncnc32)C[C@@H]1O` [MLN4924, (1S,2S,4R)-4-(4-((1S)-2,3-Dihydro-1H-inden-1-ylamino)-7H-pyrrolo(2,3-d)pyrimidin-7-yl)-2-hydroxycyclopentyl) methyl sulphamate], for which, in data set [1] (FIG. 6A), the “trabecular bone loss at distal femoral metaphysis (micro-CT images)” value is “could rescue the trabecular bone loss caused by OVX+sRANKL treatment”. Besides, the “bone volume/total tissue volume” value in data set [1] (vs OVX+sRANKL group, FIG. 6B) is “significantly rescued the sRANKL-mediated trabecular bone loss”. The trabecular number entry in data set [1] (vs OVX+sRANKL group, FIG. 6C) is “significantly rescued the sRANKL-mediated trabecular bone loss”. Besides, the trabecular space entry in data set [1] (vs OVX+sRANKL group, FIG. 6D) was “significantly rescued the sRANKL-mediated trabecular bone loss”. Further, in the data set with RAW264.7 cells, the “cell viability of RAW264.7 cells” value is reported as “did not affect cell viability”. In the data set on MC3T3-E1 cells, the “survival of osteoblasts (crystal violet)” value is “neither the survival of osteoblasts (FIG. 4A), nor the differentiation of osteoblasts (FIG. 4B) was affected”. The “basal activity of cathepsin K” value in the data set with cathepsin K (MLN4924 alone without sRANKL) is “did not affect the basal activity of cathepsin K in macrophages”. In the data set with cathepsin K (with sRANKL), the “activity of cathepsin K versus sRANKL group” value was “significantly reduced the activity of cathepsin K”.
